This is an account of results in ChEMBL document CHEMBL2069259, “Preclinical strategy to reduce clinical hepatotoxicity using in vitro bioactivation data for >200 compounds” (Chem Res Toxicol, 2012).

Starred links: 1 amine or outer side, 2 acyl side, 3 side chain; linkers in the order of their positions; H or OH if unused. Positions of bridges follow the written chain, without caps; N, C: chain ends. Non-standard residues stand in square brackets, D forms with d. Residues, ends and D or L forms follow the SMILES beside them. Chains are numbered I, II in the order given. Actinocin(9to1) = Cc1c2oc3c(C)ccc(C(=O)[*:1])c3nc-2c(C(=O)[*:2])c(N)c1=O; NMeV = CN[C@H](C(=O)O)C(C)C; Sar = CNCC(=O)O Some results are limits rather than exact numbers.

The target of data set [1] is CYP2C9 (Homo sapiens, UniProt P11712). As to the kind of experiment: Inhibition of human CYP2C9 assessed as ratio of IC50 in absence of NADPH to IC50 for presence of NADPH using 7-methoxy-4-trifluoromethylcoumarin-3-acetic acid as substrate after 30 mins.
Chain of CYP2C9 (P11712 whole entry): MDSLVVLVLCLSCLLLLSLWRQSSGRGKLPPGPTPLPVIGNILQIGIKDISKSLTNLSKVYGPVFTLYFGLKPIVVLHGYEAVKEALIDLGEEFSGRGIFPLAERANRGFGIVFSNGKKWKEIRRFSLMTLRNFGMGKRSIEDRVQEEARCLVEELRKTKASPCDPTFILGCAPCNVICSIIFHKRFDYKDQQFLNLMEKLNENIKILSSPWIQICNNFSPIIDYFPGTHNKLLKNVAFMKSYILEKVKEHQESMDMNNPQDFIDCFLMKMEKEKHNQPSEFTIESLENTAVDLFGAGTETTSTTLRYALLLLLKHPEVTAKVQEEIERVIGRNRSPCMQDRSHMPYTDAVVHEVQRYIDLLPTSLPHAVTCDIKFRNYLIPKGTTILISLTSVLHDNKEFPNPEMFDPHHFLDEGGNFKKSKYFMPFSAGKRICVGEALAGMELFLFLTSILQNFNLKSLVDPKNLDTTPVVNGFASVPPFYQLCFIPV
Data set [2] addresses CYP2C19 (Homo sapiens, UniProt P33261). As to the kind of experiment: Inhibition of human CYP2C19 assessed as ratio of IC50 in absence of NADPH to IC50 for presence of NADPH using 3-butyryl-7-methoxycoumarin as substrate after 30 mins.
Data set [3] concerns Liver microsomes. The data set can be described thus: Metabolic stability in human liver microsomes assessed as GSH adduct formation at 100 uM after 90 mins by HPLC-MS analysis. To be noted: 1.5 h. In general terms: Liver microsomes are vesicles of endoplasmic reticulum, rich in cytochrome P450 enzymes.
Data set [4] addresses CYP2D6 (Homo sapiens, UniProt P10635). As to the kind of experiment: Inhibition of human CYP2D6 assessed as ratio of IC50 in absence of NADPH to IC50 for presence of NADPH using 4-methylaminoethyl-7-methoxycoumarin as substrate after 30 mins.
For data set [5], the target named is T1, CYP3A4 (Homo sapiens, UniProt P08684). The data set can be described thus: Inhibition of human CYP3A4 assessed as ratio of IC50 in absence of NADPH to IC50 for presence of NADPH using diethoxyfluorescein as substrate after 30 mins.
T1 sequence (P08684 whole entry): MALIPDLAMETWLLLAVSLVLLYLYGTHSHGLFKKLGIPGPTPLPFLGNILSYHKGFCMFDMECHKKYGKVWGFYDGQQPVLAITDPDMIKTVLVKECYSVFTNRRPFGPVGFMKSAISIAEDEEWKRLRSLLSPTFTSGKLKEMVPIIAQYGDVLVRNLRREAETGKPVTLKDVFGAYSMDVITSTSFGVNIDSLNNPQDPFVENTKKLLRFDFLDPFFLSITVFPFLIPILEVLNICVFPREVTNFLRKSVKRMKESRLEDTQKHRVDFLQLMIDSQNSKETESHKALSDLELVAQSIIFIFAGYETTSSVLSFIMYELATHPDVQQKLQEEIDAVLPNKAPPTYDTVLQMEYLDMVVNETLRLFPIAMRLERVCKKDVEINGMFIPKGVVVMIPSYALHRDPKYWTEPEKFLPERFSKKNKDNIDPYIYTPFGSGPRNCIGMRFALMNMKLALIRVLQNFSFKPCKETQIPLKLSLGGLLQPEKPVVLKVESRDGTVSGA
The target of data set [6] is T1, CYP3A4. As to the kind of experiment: Inhibition of human CYP3A4 assessed as ratio of IC50 in absence of NADPH to IC50 for presence of NADPH using 7-benzyloxyquinoline as substrate after 30 mins.
Data set [7] has as its system Liver microsomes. As to the kind of experiment: Metabolic stability in human liver microsomes assessed as high signal/noise ratio (S/N of >100) by measuring GSH adduct formation at 100 uM after 90 mins by HPLC-MS analysis. The note with it: 1.5 h.
Data set [8] deals with T2, CYP1A2 (Homo sapiens, UniProt P05177).
T2 sequence (P05177 whole entry): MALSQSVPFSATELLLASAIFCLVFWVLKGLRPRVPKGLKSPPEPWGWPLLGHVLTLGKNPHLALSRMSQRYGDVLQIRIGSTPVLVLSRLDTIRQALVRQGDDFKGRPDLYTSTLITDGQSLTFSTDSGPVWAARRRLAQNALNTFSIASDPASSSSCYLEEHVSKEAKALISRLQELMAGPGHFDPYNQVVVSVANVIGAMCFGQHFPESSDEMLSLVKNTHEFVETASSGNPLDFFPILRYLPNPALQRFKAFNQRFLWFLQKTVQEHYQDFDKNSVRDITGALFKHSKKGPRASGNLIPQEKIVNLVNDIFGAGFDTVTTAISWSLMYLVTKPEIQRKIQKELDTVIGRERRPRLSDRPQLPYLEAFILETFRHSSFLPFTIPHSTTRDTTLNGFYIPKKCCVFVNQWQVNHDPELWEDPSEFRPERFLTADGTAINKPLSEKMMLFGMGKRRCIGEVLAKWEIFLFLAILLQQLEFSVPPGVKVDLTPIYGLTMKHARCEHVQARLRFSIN
The data set can be described thus: Inhibition of human CYP1A2 assessed as ratio of IC50 in absence of NADPH to IC50 for presence of NADPH using ethoxyresorufin as substrate after 30 mins.

The test system of data set [9] is Liver microsomes. The note with it: human, 1.5 h, 100 µM.
The mark [10] stands for this setting: probe 4-methylaminoethyl-7-methoxycoumarin.
Where [11] appears, read: probe 7-methoxy-4-trifluoromethylcoumarin-3-acetic acid.
Setting [12] is: probe 3-butyryl-7-methoxycoumarin.

Chain of CYP2C19 (P33261 whole entry): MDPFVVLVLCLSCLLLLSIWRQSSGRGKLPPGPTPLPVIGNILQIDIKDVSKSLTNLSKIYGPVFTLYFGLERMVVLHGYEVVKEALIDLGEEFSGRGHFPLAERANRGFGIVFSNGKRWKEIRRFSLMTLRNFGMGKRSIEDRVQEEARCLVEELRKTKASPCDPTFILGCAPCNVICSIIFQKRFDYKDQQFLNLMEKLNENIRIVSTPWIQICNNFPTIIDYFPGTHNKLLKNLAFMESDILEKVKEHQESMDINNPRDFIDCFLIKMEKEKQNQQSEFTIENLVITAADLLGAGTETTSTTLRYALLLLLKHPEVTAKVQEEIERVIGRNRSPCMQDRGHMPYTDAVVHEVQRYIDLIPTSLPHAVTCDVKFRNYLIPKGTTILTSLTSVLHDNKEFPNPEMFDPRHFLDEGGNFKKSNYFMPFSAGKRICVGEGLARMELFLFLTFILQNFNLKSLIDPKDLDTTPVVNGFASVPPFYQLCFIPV
Chain of CYP2D6 (P10635 whole entry): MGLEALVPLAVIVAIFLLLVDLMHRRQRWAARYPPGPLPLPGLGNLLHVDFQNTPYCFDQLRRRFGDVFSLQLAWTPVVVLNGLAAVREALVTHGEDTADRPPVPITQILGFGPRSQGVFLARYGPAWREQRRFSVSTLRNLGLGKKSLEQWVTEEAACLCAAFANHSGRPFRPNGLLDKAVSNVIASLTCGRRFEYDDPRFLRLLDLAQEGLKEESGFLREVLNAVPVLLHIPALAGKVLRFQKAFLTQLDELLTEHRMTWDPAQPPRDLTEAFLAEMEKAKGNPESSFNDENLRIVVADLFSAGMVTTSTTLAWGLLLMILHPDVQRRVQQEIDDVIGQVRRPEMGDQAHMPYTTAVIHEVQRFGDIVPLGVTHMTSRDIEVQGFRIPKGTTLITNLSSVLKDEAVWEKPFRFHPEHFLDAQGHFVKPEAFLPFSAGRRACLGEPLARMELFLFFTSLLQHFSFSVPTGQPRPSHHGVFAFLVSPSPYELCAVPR

`O=C(O)COc1ccc(C(=O)c2cccs2)c(Cl)c1Cl`: the IC50 shift at 0.5 h in data set [1] is 2; in data set [2], less than 2. The Stability result in data set [3] was “Stable”.

`Oc1ccc2c(c1)[C@@]13CCCC[C@@]1(O)[C@@H](C2)N(CC1CCC1)CC3` [BUTORPHANOL]: the IC50 shift at 0.5 h in data set [4] (setting [10]) is less than 2. Besides, the Stability entry in [3] was “Stable”.

In the case of `CCOC(=O)n1ccn(C)c1=S` [CARBIMAZOLE], the IC50 shift at 0.5 h in data set [4], in data set [5] and in data set [6] was greater than 5 in each case. Besides, the Stability result in data set [7] is “Unstable”.

Consider `Clc1ccccc1C(c1ccccc1)(c1ccccc1)n1ccnc1` [CLOTRIMAZOLE], for which the results for the IC50 shift at 0.5 h in data set [8] and in data set [4] were 2 and less than 2, respectively. Also, the Stability result in data set [3] was “Stable”.

Consider `Cc1c2oc3c(C)ccc(C(=O)N[C@@H]4C(=O)N[C@H](C(C)C)C(=O)N5CCC[C@H]5C(=O)N(C)CC(=O)N(C)[C@@H](C(C)C)C(=O)O[C@@H]4C)c3nc-2c(C(=O)N[C@@H]2C(=O)N[C@H](C(C)C)C(=O)N3CCC[C@H]3C(=O)N(C)CC(=O)N(C)[C@@H](C(C)C)C(=O)O[C@@H]2C)c(N)c1=O` [DACTINOMYCIN] (I: T[dV]P[Sar][NMeV] / II: T[dV]P[Sar][NMeV]; ester I:1-I:C, II:1-II:C; linker I:N-II:N via Actinocin(9to1)), for which the IC50 shift at 0.5 h in data set [1] (setting [11]) is 2; in data set [2] (setting [12]) it was less than 2; in data set [6] (probe 7-benzyloxyquinoline), 2. The Stability entry in [3] is on record as “Stable”.

Consider `CC/C(=C(/CC)c1ccc(O)cc1)c1ccc(O)cc1` [DIETHYLSTILBESTROL], for which the IC50 shift at 0.5 h in data set [8] was 2. Further, the Stability entry in data set [7] is on record as “Unstable”.

`CC1(C)[C@@H](O)CC[C@]2(C)[C@H]3C(=O)C=C4[C@@H]5C[C@@](C)(C(=O)O)CC[C@]5(C)CC[C@@]4(C)[C@]3(C)CC[C@@H]12` [ENOXOLONE]: the IC50 shift at 0.5 h in data set [8] (probe ethoxyresorufin) is 2. In addition, the Stability result in data set [3] is given as “Stable”.

On to `CC(C)OC(=O)C(C)(C)Oc1ccc(C(=O)c2ccc(Cl)cc2)cc1` [FENOFIBRATE], for which the IC50 shift at 0.5 h was greater than 5 in data set [8], less than 2 in data set [2], 2 in [4] and less than 2 in [5]. In data set [3], the Stability result was “Stable”.

Regarding `CNCCC(Oc1ccc(C(F)(F)F)cc1)c1ccccc1` (configuration not stated) [FLUOXETINE], the IC50 shift at 0.5 h in data set [1] was 2; in data set [2] it was greater than 5; in data set [5], 2; in data set [6] it was greater than 5. Also, the Stability result in data set [3] was “Stable”.

Turning to `CC(C)C(=O)Nc1ccc([N+](=O)[O-])c(C(F)(F)F)c1` [FLUTAMIDE], the IC50 shift at 0.5 h in data set [8], in data set [4] and in [5] was less than 2 in each case. Also, the Stability result in data set [9] is given as “Unstable”.

As to `COCCCC/C(=N\OCCN)c1ccc(C(F)(F)F)cc1` [FLUVOXAMINE], the IC50 shift at 0.5 h in [8] (probe ethoxyresorufin) is less than 2; in data set [4] (setting [10]) it was 2. In data set [7], the Stability entry is on record as “Unstable”.

Regarding `C[N+]1(C)[C@@H]2CC[C@H]1C[C@@H](OC(=O)C(O)c1ccccc1)C2` (some centres not stated) [HOMATROPINE METHYLBROMIDE], the IC50 shift at 0.5 h in [4] (setting [10]) is less than 2.

As to `CCN(CC)CCNc1ccc(CO)c2sc3ccccc3c(=O)c12` [HYCANTHONE], the IC50 shift at 0.5 h was greater than 5 in data set [8] and 2 in data set [5]. Moreover, the Stability entry in data set [7] was “Unstable”.

As for `NNC(=O)c1ccncc1` [ISONIAZID], the IC50 shift at 0.5 h in data set [2], in [4], in data set [5] and in data set [6] was greater than 5 throughout. Moreover, in data set [3], the Stability entry is “Stable”.

For the molecule `Oc1ccc2c3c1O[C@H]1[C@@H](O)CC[C@@]4(O)[C@@H](C2)N(CC2CCC2)CC[C@]314` [NALBUPHINE], the IC50 shift at 0.5 h in data set [1] came to 2. In [3], the Stability entry is “Stable”.

`CCN(CC)CC#CCOC(=O)C(O)(c1ccccc1)C1CCCCC1` (configuration not stated) [OXYBUTYNIN]: the figures for the IC50 shift at 0.5 h in data set [8], in data set [1] and in data set [2] were greater than 2, less than 2 and greater than 5, respectively. For the same molecule, the Stability entry in [7] is listed as “Unstable”.

In the case of `C1CCC(C(CC2CCCCN2)C2CCCCC2)CC1` (configuration not stated) [PERHEXILINE], the IC50 shift at 0.5 h in [1] is less than 2.

On to `NNCCc1ccccc1` [PHENELZINE], for which the IC50 shift at 0.5 h is 2 in data set [8]; 2 in data set [1]; greater than 5 in data set [2]; greater than 5 in [4]; 2 in [5]. In addition, in [9], the Stability result is recorded as “Unstable”.

For the molecule `CC(COc1ccccc1)N(CCCl)Cc1ccccc1` (configuration not stated) [PHENOXYBENZAMINE], the IC50 shift at 0.5 h in data set [8] (probe ethoxyresorufin) was 2; in data set [1] (setting [11]), less than 2; in [2] (setting [12]), 2; in data set [5] (probe diethoxyfluorescein), 2. In addition, the Stability entry in data set [7] was “Unstable”.

On to `COc1ccc(CN(CCN(C)C)c2ccccn2)cc1` [PYRILAMINE], for which the IC50 shift at 0.5 h in data set [4] (setting [10]) came out at 2. Further, the Stability entry in data set [9] was “Unstable”.

Take `Nc1c2c(nc3ccccc13)CCCC2` [TACRINE]: the IC50 shift at 0.5 h in [1] was 2; in [2], less than 2. Moreover, the Stability result in data set [3] was “Stable”.

Consider `CC1=C(/C=C/C(C)=C/C=C/C(C)=C/C(=O)O)C(C)(C)CCC1` [TRETINOIN], for which the IC50 shift at 0.5 h in data set [8] (probe ethoxyresorufin) was less than 2; in [2] (setting [12]), 2; in data set [4] (setting [10]), 2; in data set [5] (probe diethoxyfluorescein), 2; in data set [6] (probe 7-benzyloxyquinoline), greater than 5. Besides, the Stability entry in data set [3] was “Stable”.

Take `CC(c1cc2ccccc2s1)N(O)C(N)=O` (configuration not stated) [ZILEUTON]: the IC50 shift at 0.5 h in data set [8] (probe ethoxyresorufin) is greater than 5. Also, in [3], the Stability result was “Stable”.
